Experimental data published in US20240100178A1, “EGFR TARGETING PEPTIDE CONJUGATE” (Chapman University, priority 2022, published 2024).
Where a SMILES comes first, the peptide text is derived from it. The star is where a group is joined. X1 = COc1cccc2c1C(=O)c1c(O)c3c(c(O)c1C2=O)C[C@@](O)(C(=O)CO)C[C@@H]3O[C@H]1C[C@H](NC(=O)C2CCC(CN3C(=O)CC(*)C3=O)CC2)[C@H](O)[C@H](C)O1

Key:
MDA-MB-468 = assay: Cytotoxicity MTT/MTS assay, MDA-MB-468; assay type: cell-based; conditions: MDA-MB-468 (TNBC) cells
Source text: (§1) FIG. 4A-C depicts the cytotoxicity of PDoxC, obtained by […], for three cell lines (MDA-MB-231 [FIG. 4A], MDA-MB-468 [FIG. 4B], and MCF-10A [FIG. 4C]). Cell viability is plotted against drug concentration (PDoxC or Dox) to obtain IC50 values. Each experimental point was done in duplicates or triplicates and the experiment was repeated once.
(§2) Next, the cytotoxicity of the peptide 31 PDoxC was compared to the DOX (free drug) using MTS assay (FIG. 4A-C). Three cell lines were used, two TNBC cell lines (MDA-MB-231 and MDA-MB-468) and one non-cancerous mammary epithelial MCF-10A cell line. […] This peptide 31 PDoxC is very promising as this level of selectivity has never been observed with previously reported peptide-drug conjugates.

MCF-10A = assay: Cytotoxicity MTT/MTS assay, MCF-10A; assay type: cell-based; conditions: MCF-10A non-cancerous mammary epithelial cells; highest tested concentration 25 μM
Source text: as §1, §2

[1] = Stability of peptide GE11 in human serum at 37° C. (RP-HPLC); assay type: in vitro ADME
Description: Peptide was incubated with human serum at 37° C., and aliquots were removed at different time intervals for HPLC analysis.
Peptides show low proteolytic stability when administered systemically and must be stabilized for clinical application. […] The three N-terminal amino acids (1Y, 2H, 3W) were cleaved sequentially by proteolysis, giving three fragments (A, B, and C, Table 2)) that appear in the HPLC chromatograms. […] Therefore, blocking the N-terminus of the peptide with a chemotherapeutic drug yields a stable conjugate.

MDA-MB-231 = assay: Cytotoxicity MTT/MTS assay, MDA-MB-231; assay type: cell-based; conditions: MDA-MB-231 (TNBC) cells
Source text: as §1, §2

[2] = Stability of PDoxC in human serum at 37° C. (RP-HPLC); assay type: in vitro ADME; conditions: HPLC peak AUC
Description: (§3) FIG. 3 depicts the stability of the PDoxC in the presence of human or mouse serum at 37° C. The PDoxC was incubated with human or mouse serum and aliquots were removed at different time intervals for HPLC analysis. The AUC for PDoxC peak was used to calculate the percent intact at different time points.
(§4) The stability of the peptide 31 PDoxC was evaluated by incubating it with human or mouse serum at 37° C. (FIG. 3). Aliquots were removed at regular intervals to analyze the PDoxC using RP-HPLC.

[3] = Stability of PDoxC in mouse serum at 37° C. (RP-HPLC); assay type: in vitro ADME; conditions: HPLC peak AUC
Description: as §3, §4

EGFR in MDA-MB-231 cells = assay: EGF competition assay of FITC labeled peptide uptake by flow cytometry; assay type: cell-based
Source text: (§5) The specific binding and uptake of peptide 22 (FITC labeled peptide) by EGFR in TNBC cells was confirmed by competition assay using flow cytometry.

[4] = test system: TNBC cells (MDA-MB-468, 231, and 436); assay: SPOT peptide array library screen for binding to TNBC cells versus normal breast cells; assay type: cell-based; conditions: peptide array incubated with TNBC cells (MDA-MB-468, 231, 436) or normal breast cells (MCF-10A, 12A); relative to lead GE11
Description: A library of 30 peptide sequences (in duplicates, total 60 peptides) was synthesized in an array format on functionalized cellulose membrane using SPOT synthesis. The peptide library was screened for identifying EGFR binding peptide in TNBC cells by incubating the library with TNBC cells (MDA-MB-468, 231, and 436) or normal breast (MCF-10A and 12A) cells.

[5] = test system: noncancerous mammary epithelial cells (MCF-10A and MCF12A); assay: Peptide uptake by noncancerous mammary epithelial cells; assay type: cell-based
[6] = test system: EGFR expressing TNBC cells (MDA-MB-231 and MDA-MB-468); assay: Peptide uptake by EGFR expressing TNBC cells; assay type: cell-based
Source text: as §5

[7] = target: T1, epidermal growth factor receptor (EGFR) on TNBC cells (UniProt P00533 25-1210, limits assumed); assay: SPOT peptide array on cellulose membrane incubated with TNBC cells (MDA-MB-468, 231, 436) or normal breast cells
T1 construct: whole, on cells; also called ErbB1

## COc1cccc2c1C(=O)c1c(O)c3c(c(O)c1C2=O)C[C@@](O)(C(=O)CO)C[C@@H]3O[C@H]1C[C@H](N)[C@H](O)[C@H](C)O1 [Free Dox, doxorubicin, reference compound]
MDA-MB-468
  IC50: 570 nM
MCF-10A
  IC50: 1410 nM

## CC[C@H](C)[C@H](NC(=O)[C@@H](NC(=O)[C@H](CC(N)=O)NC(=O)[C@H](CCC(N)=O)NC(=O)[C@@H]1CCCN1C(=O)[C@@H](NC(=O)[C@H](Cc1ccc(O)cc1)NC(=O)CNC(=O)[C@H](Cc1ccc(O)cc1)NC(=O)[C@H](Cc1c[nH]c2ccccc12)NC(=O)[C@H](Cc1c[nH]cn1)NC(=O)[C@@H](N)Cc1ccc(O)cc1)[C@@H](C)O)C(C)C)C(=O)O [GE11]
[1]; 0 h
  % Intact GE11: 100%
[1]; 1 h
  remaining at 1 h: 49%
[1]; 3 h
  remaining at 3 h: 18%
[1]; 7 h
  % Intact GE11: 2%
  remaining at 7 h: 2%

## CC[C@H](C)[C@H](NC(=O)[C@@H](NC(=O)[C@H](CCCNC(=N)N)NC(=O)[C@H](CCC(=O)O)NC(=O)[C@@H]1CCCN1C(=O)[C@@H](NC(=O)[C@H](Cc1ccc(O)cc1)NC(=O)CNC(=O)[C@H](Cc1ccc(O)cc1)NC(=O)[C@H](Cc1c[nH]c2ccccc12)NC(=O)[C@H](Cc1c[nH]cn1)NC(=O)[C@H](Cc1ccc(O)cc1)NC(=O)[C@@H](N)CSC1CC(=O)N(CC2CCC(C(=O)N[C@H]3C[C@H](O[C@H]4C[C@](O)(C(=O)CO)Cc5c(O)c6c(c(O)c54)C(=O)c4c(OC)cccc4C6=O)O[C@@H](C)[C@H]3O)CC2)C1=O)[C@@H](C)O)C(C)C)C(=O)O (some centres unmarked) [PDoxC] (H-C(X1)YHWYGYTPERVI-OH; N-terminus and C-terminus assumed)
MDA-MB-468
  IC50: 2750 ± 570 nM
MDA-MB-231
  IC50: 2370 ± 550 nM
[2]
  half-life: 12.7 h
[3]
  half-life: 4 h
MCF-10A
  IC50 ± SD: no toxicity

## YHWYGYTPENVI [Peptide 22, used FITC labeled in uptake assays]
EGFR in MDA-MB-231 cells; FITC labeled peptide alone, without excess EGF
  FITC-positive MDA-MB-231 cells: 99%
EGFR in MDA-MB-231 cells; FITC labeled peptide in the presence of excess EGF protein
  FITC-positive MDA-MB-231 cells: 2%
[4]
  specific affinity for TNBC cells: higher specific affinity
[5]
  uptake by noncancerous mammary epithelial cells: minimal uptake
[6]
  uptake by EGFR expressing TNBC cells compared to the lead GE11: 47-123 fold

## YHWYGYTPKNVI [Peptide 26]
[4]
  specific affinity for TNBC cells: higher specific affinity

## YHWYGYTPQDVI [Peptide 23]
[4]
  specific affinity for TNBC cells: higher specific affinity

## YHWYGYTPQKVI [Peptide 27]
[4]
  specific affinity for TNBC cells: higher specific affinity

## YHWYGYTPQDVI (made on a cellulose membrane by SPOT synthesis in the library screen) [peptide 23]
[7]
  binding result: binds

## YHWYGYTPQKVI (made on a cellulose membrane by SPOT synthesis in the library screen, 12-mer derived from GE11 (N10K)) [peptide 27]
[7]
  binding result: binds

## YHWYGYTPKNVI (made on a cellulose membrane by SPOT synthesis in the library screen) [peptide 26]
[7]
  binding result: binds
